SMILES | melting point [°C]
CC12CC1(C)C(=O)N(c1cc(Cl)cc(Cl)c1)C2=O (stereo not given) | 166
CC1(C)CCC(=Cc2ccc(Cl)cc2)C1(O)Cn1cncn1 (stereo not given) | 140
N#CC(C#N)=C(SCc1ccccc1)SCc1ccccc1 | 82
COC(=O)c1ccc(OC)c([N+](=O)[O-])c1 | 111
Cc1cc(C(=O)NN)[nH]n1 | 157 to 158
O=C1/C(=N\Nc2cccc([N+](=O)[O-])c2)C(C(F)(F)F)=NN1c1ccccc1 | 150
Nc1nnc(Sc2ncccc2[N+](=O)[O-])s1 | 216
O=[N+]([O-])OC1COC2C(O)COC12 (stereo not given) | 88 to 93
COc1ccc(CNC(=O)c2ccccc2)cc1OCc1ccccc1 | 143
COc1cc(C)nc(N)n1 | 161
OCc1cc(-c2ccco2)[nH]n1 | 159
Fc1ccc(I)cn1 | 32
CC/C=C/C(=O)O | 9
COC(=O)c1c(C)c(Br)c(OC)c(Br)c1OC | 60
O=C1CC2C(CC(O)C2CO)O1 (single isomer, unassigned; (-)) | 114 to 118
O=C(CCBr)N1CCN(C(=O)CCBr)CC1 | 106
Nc1ccccc1CCc1ccccc1N | 72 to 77
O=Cc1ccccc1-c1cccnc1 | 68 to 69
CC(C)(C)OC(=O)NCc1ccc(C=O)cc1 | 83 to 84
CCOC(=O)c1c(NC(=S)Nc2ccccc2)sc2c1CCCC2 | 189 to 191
C1=CC2=CC=Cc3c(c(c4cccc5cccc3c54)=C1)C2 | 171
C=C(Br)C(=O)O | 68
Cn1nc([N+](=O)[O-])c2c(=O)cc[nH]c21 | 222 to 224

SMILES | melting point [°C]
C[C@H](O)CC[C@H](C)O | 53
CCOC(=O)c1sc(-c2ccccc2)nc1C | 36 to 39
CN1CCOc2cc(C=O)ccc21 | 70 to 71
CC1(C)CC2C(C(=O)O1)C2(C)C (stereo not given) | 80 to 83
Oc1ccc2c(c1)OCO2 | 63 to 65
CCOC(=O)c1cc(-c2ccco2)[nH]n1 | 137 to 138
COC(=O)C(C)(C)C1=CCC2(C)C(CCC3C4CCC(O)C4(C)CCC32)C1 (stereo not given) | 150
Nc1ccc2ccc3ccccc3c2c1 | 143
COc1ccc(C(=NCc2ccccc2)c2ccc(OC)cc2)cc1 | 90
COc1nc(C)nc(N)n1 | 260
NC(=O)c1ccccc1CO | 150
O=Nc1ccc(O)c(N=O)c1O | 168
CS(=O)(=O)c1cc(Cl)c(O)c(Cl)c1 | 223 to 224
Cc1nc(O)nc(O)c1C | 297 to 300
N#CC1=C(C#N)C(=O)C(NCCc2ccccc2)=C(Cl)C1=O | 265 to 267
CC(=O)CCC(C)C | -74
O=C1NC(=O)c2cccc3cccc1c23 | 301 to 302
CSc1nc(=O)n(C2CCCCC2)c2c1CCC2 | 192 to 194
CCOc1nc2ccccc2c(=O)n1Cc1ccccc1 | 96 to 97
O=C(CCc1ccccc1)CCc1ccccc1 | 13.5
BrCc1ccc(-c2csnn2)cc1 | 135 to 137
CNC(C)C(O)c1ccc(O)cc1 (stereo not given) | 153
CC(=O)Oc1c(-c2ccccc2)[nH]c2cc3c(cc12)C(=O)C(c1ccccc1)=[N+]3[O-] | 246

SMILES | melting point [°C]
C1=C\c2ccc(cc2)-c2ccccc2-c2ccc/1cc2 | 230
CC12CCC3C(=CCc4cc(O)ccc43)C1CCC2O (stereo not given) | 174
CCOC(=O)c1oc(C(=O)OCC)c(O)c1O | 178 to 180
COc1ccc(C(=O)c2cccs2)cc1 | 73 to 76
O=C(O)c1cccc2c1OCO2 | 224 to 225
Cc1ccc(C#N)c(S(=O)(=O)Cl)c1 | 71 to 73
Brc1ccc(-c2cccnc2)nc1 | 77
O=C1OC(=O)c2cc(Br)ccc21 | 107
FC(F)(F)c1ccc(-n2cc[nH]c2=S)cc1 | 194 to 196
CCOc1cc(C=O)ccc1OC | 52
Cc1ccccc1N1C(=O)C2ON=C(C(=O)c3ccco3)C2C1=O (stereo not given) | 203 to 204
CCCCCCC(=O)c1ccccc1 | 16.4
N#Cc1c(Cl)ccc([N+](=O)[O-])c1Cl | 108
c1cc2ccc1CCc1ccc(cc1)CC2 | 285 to 288
CCOC(=O)N1CCNC(c2ccccc2)C1 (stereo not given) | 63
c1cc2[nH]cnc2cn1 | 172
CC(C)(C)CC(=O)C=C1Nc2ccccc2NC1=CC(=O)CC(C)(C)C | 220 to 222
COc1ccc(C#N)c(F)c1F | 84
Oc1cc(Br)cc(Br)c1 | 81
CC1=Nc2ccccc2C1(C)C#N (stereo not given) | 73
CC(C)(C)Oc1ncc(Br)cn1 | 62
OCc1ccc(O)cc1 | 124
CSc1scnc1S(=O)(=O)c1ccc(C)cc1 | 169 to 171

SMILES | melting point [°C]
CCOc1ccc(OCC)c(N)c1 | 85
Brc1cccc(Oc2ccc(Br)c(Br)c2)c1 | < 20
Nc1ccc(N=O)c(N)n1 | 260 to 266
COc1ccccc1-c1ccc(/C=C2\N=C(c3ccccc3)OC2=O)o1 | 170
O=NN(c1ccccc1)c1ccccc1 | 66.5
COc1ccc(OC)c(C(=O)O)c1 | 77
CCN1CCc2c3n(c4ccccc24)C(C(=O)OC)=CCC31 (stereo not given) | 120
O=C(O)c1ccc(-c2cncnc2)cc1 | 316 to 317
CC(C)(C)OC(=O)Nc1ccccn1 | 93
Cc1cc(Cl)ccc1C(=O)O | 172 to 173
COc1cc(C)cc(OC)c1O | 39
O=P(O)(O)CCN(CP(c1ccccc1)c1ccccc1)CP(c1ccccc1)c1ccccc1 | 146 to 148
C=C1/C(=N/Nc2cc(Cl)c(Cl)cc2Cl)C(=O)N(C)C(=O)N1C | 242
CC(=O)C1CCC2C3C=CC4=CC(=O)CCC4(C)C3CCC12C (stereo not given) | 170
CCCCCCCCCCCCCCCC(C)=O | 48
Cc1ccc(O)c(C(=O)C(F)(F)F)c1 | 41
C=C1C(C)CCC2(C)C3=C(C(=O)C4(CC4C)C(O)C3=O)C(O)C(O)C12 (stereo not given) | 194
OCc1csc(-c2cccc(Cl)c2)n1 | 93 to 95
Cc1ccc(S(=O)(=O)OCc2c(F)c(F)c(F)c(F)c2F)cc1 | 78
CCCCCCCCCCCC(C)CC (stereo not given) | -32
FC(F)(F)c1ccc(-c2nnn[nH]2)cc1 | 226
Oc1c(I)cc(Cl)c2cccnc12 | 178
CC1=NN(c2ccccc2)C(=O)C1Cc1ccc(O)cc1 (stereo not given) | 210

SMILES | melting point [°C]
COc1nc(Cl)nc(OC)n1 | 77
CN(C)CCc1c[nH]c2ccc(O)cc12 | 146
Cc1ccc(NC(=O)CC(C)c2ccc(C)cc2)cc1 (stereo not given) | 105
COC(=O)[C@H]1CC[C@H](C(=O)OC)CC1 | 67 to 70
COc1cc(C(=O)O)ccc1C | 159
CCCSc1ccc2[nH]c(NC(=O)OC)nc2c1 | 208
O=C(Cc1ccccc1)C(=O)Cc1ccccc1 | 86
O=Nc1ccc(C(=O)OC2Cc3ccccc32)cc1 (stereo not given) | 119
c1coc(P(c2ccco2)c2ccco2)c1 | 62
CC(=O)SCC(C)C(=O)O (stereo not given) | 5
CC(C)C(=O)C(=O)O | 31.5
CCCC(=O)Cl | -89
CC(C(O)c1ccccc1)N(C)CC=Cc1ccccc1 (stereo not given) | 75
Cc1ccc([N+](=O)[O-])c(N)c1 | 108
O=Cc1cc(Cl)cc(Cl)c1Cl | 72 to 76
COc1cccc(C=C(C)[N+](=O)[O-])c1 | 45 to 47
COc1cc(OC(F)(F)F)ccc1C#N | 35
NC(=O)NN=Cc1ccccc1 | 231
N#C/C(=N\Nc1cc(Cl)c(Cl)cc1Cl)c1nc2ccccc2s1 | 214
COc1ccc2cc([N+](=O)[O-])ccc2c1C=O | 174
CCCOC(=O)C1=C(C)NC(=O)NC1c1ccccc1O (stereo not given) | 189
CNc1ccc2cc(OC)[nH]c2c1 | 165
Cc1cccc(OCC(=O)O)c1 | 104

SMILES | melting point [°C]
c1ccc2c(c1)Nc1ccccc1O2 | 156
CC(C)(C)N(NC(=O)c1ccccc1)C(=O)c1c(Cl)cccc1Cl | 198
COc1cc2nc(Cl)nc(Cl)c2cc1OC | 177
COc1ccc2c(C)cc(=O)oc2c1 | 161
N#CC1(N2CCCCC2)CCN(Cc2ccccc2)CC1 | 103 to 106
CCOc1ccc(Cc2nc(C)cc3cc(OC)c(OC)cc23)cc1OC | 124
C=C(C)CCCCCCCCCCC | -22
O=C(O)c1cc(F)ccc1[N+](=O)[O-] | 135
OCc1c(F)cccc1Cl | 43
O=[N+]([O-])C=Cc1ccccc1Cl | 48
Cc1cc(Cl)cc(C=O)c1O | 67 to 68
CCOC(=O)c1c(C)n[nH]c1N | 108
COc1cc(O)c2c(=O)c3cc(O)ccc3oc2c1 | 266
O=C(O)c1cccc(-c2ccncc2)c1 | 268
FC(F)(F)c1nn(CN2CCCCC2)c(=S)n1N=Cc1ccc2c(c1)OCO2 | 122
Cc1ccc(C=O)c(Br)c1 | 35
CN1C(=O)CCS(=O)(=O)C1c1ccc(Cl)cc1 (stereo not given) | 116
O=C1OC(=O)c2c(I)c(I)c(I)c(I)c21 | 328
COc1nc(N)nc(SC)n1 | 200 to 202
CC1=CC(=O)c2c(O)cccc2C1=O | 78.5
